Values of other authors in patent US10245273B2, “Oral pharmaceutical products and methods of use combining testosterone esters with hypolipidemic agents” (Clarus Therapeutics, Inc., priority 2013, dated 2019).

Cc1ccc(C)c(OCCCC(C)(C)C(=O)O)c1 [gemfibrozil]
Subjects with a primary event (600 mg twice daily for 5 years (placebo 21.7%)): 17.3%
Reduction in CHD events / relative risk reduction of primary outcome (nonfatal myocardial infarction or death of cardiac origin) (600 mg twice daily, median follow-up 5.1 years, vs placebo): 22%
Increase in numbers of small HDL particles (in vivo): 21%
Increase in total HDL particles (in vivo): 10%
Relative risk reduction for combined cardiac events (nonfatal MI, death from coronary causes or stroke) (vs placebo): 24%
